From patent US20120165331A1, “Di/tri-aza-spiro-C9-C11alkanes” (priority 2010, published 2012)

Legend:
human orexin 1 receptor = target: T1, human orexin 1 receptor (Homo sapiens, UniProt O43613); test: Calcium accumulation in cells (FLIPR), antagonism of orexin A, human orexin 1 receptor; format: cell-based; settings: for Ki: calcium accumulation, antagonism of orexin A, Cheng-Prusoff corrected, read-out: FLIPR hOx1R Ki; for inhibition at 10 µM: measured at a concentration of 10 μM of compound, read-out: FLIPR hOx1R % inhibition
T1 construct: expressed in transfected cells
T1 sequence (O43613 1-425): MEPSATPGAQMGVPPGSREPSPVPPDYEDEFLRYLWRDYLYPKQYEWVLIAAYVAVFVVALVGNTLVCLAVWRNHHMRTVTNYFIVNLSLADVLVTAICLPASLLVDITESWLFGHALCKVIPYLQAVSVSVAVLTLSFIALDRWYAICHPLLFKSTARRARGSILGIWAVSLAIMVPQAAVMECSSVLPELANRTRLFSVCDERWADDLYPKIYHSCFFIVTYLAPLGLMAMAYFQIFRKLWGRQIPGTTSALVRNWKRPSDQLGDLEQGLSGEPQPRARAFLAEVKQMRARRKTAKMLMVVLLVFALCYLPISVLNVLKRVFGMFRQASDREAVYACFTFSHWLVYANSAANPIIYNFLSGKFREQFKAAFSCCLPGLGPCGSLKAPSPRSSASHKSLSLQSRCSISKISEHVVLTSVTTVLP
Method: (§1) Calcium Accumulation in Cells (FLIPR):
(§2) Cells expressing human orexin 1 or human orexin 2 receptors, were seeded at 8,000 cells/well in 384 well black-walled clear bottom, poly-D-lysine coated plates. After 24 h, the medium was removed and cells were washed once with phosphate buffered saline and serum-deprived overnight in assay buffer (130 mM NaCl, 5.4 mM KCl, 1.8 mM CaCl2, 0.8 mM MgSO4, 0.9 mM NaH2PO4, 25 mM glucose, 20 mM HEPES, pH 7.4) containing bovine serum albumin (1% w/v).
(§3) On the day of the experiment, the cells seeded in black plates were treated with assay buffer containing the Ca^2+ sensitive fluorescent dye Fluo-4-AM (2 μM), and probenecid (0.1 mM). After 1 h plates were washed twice with, and resuspended in, assay buffer containing probenecid (0.1 mM) using a multi plate washer. The plates were placed into a FLIPR II (Fluorometric Imaging Plate Reader, Molecular Devices, Sunnyvale, Calif., USA) and baseline fluorescence (fluorescence light units, FLU) was measured (5 measurements, 2 S each; laser excitation 488 nm at 0.6-1 W, CCD camera exposure 0.4 s) before addition of buffer alone (basal) or containing test compounds (either compound of formula I alone, agonist alone or agonist in the presence of various concentrations of compounds of formula I). Fluorescence measurements were then continued every 1 S for 120 S followed by every 4 S for 240 S.
(§4) The measurements were typically made in two sequences:
(§5) Compounds of formula I were tested usually in a concentration range from 10^−9 M to 10^−5 M.
(§6) In the second round, performed one hour later (to allow for equilibration), Orexin A was tested either in the absence (calibration curves, Orexin A agonist controls) or in the presence of compounds of formula Ito determine antagonism.
(§7) Inhibition data is expressed in Table 1 as Kd [μM], converted by the Cheng and Prusoff correction (Kd=IC50/1+(L/EC50)), where IC50 is the 50% inhibition value determined in concentration response inhibition curves, EC50 is the half maximal activation concentration determined for orexin A in concentration response curves and L is the concentration of orexin A used in inhibition experiments performed in with a submaximal concentration of orexin A in the presence of up to 8 increasing concentrations of compound of formula I. Inhibition data is also expressed in Table 1 as % inhibition value measured at a concentration of 10 μM of selected compounds of formula I.

human orexin 2 receptor = target: T2, human orexin 2 receptor (Homo sapiens, UniProt O43614); test: Calcium accumulation in cells (FLIPR), antagonism of orexin A, human orexin 2 receptor; format: cell-based; settings: for Ki: calcium accumulation, antagonism of orexin A, Cheng-Prusoff corrected, read-out: FLIPR hOx2R Ki; for inhibition at 10 µM: measured at a concentration of 10 μM of compound, read-out: FLIPR hOx2R % inhibition
T2 construct: expressed in transfected cells
T2 sequence (O43614 1-444): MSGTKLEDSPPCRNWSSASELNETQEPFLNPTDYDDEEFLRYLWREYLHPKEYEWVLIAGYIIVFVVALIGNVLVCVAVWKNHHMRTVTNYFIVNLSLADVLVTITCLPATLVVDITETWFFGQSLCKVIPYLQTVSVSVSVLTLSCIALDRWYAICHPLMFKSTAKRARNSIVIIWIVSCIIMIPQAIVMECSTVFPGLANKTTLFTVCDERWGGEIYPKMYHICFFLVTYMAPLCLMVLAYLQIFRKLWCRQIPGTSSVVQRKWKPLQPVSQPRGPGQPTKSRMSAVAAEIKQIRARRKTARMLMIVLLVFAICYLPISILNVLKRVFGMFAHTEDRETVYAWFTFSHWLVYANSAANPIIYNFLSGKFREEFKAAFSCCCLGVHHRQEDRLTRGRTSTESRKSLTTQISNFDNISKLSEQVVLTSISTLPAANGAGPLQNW
Method: as §1, §2, §3, §4, §5, §6, §7

| Structure (SMILES) | Ki (human orexin 1 receptor) [nM] | Ki (human orexin 2 receptor) [nM] | inhibition at 10 µM (human orexin 1 receptor) [%] | inhibition at 10 µM (human orexin 2 receptor) [%] |
| --- | --- | --- | --- | --- |
| COc1nc(C)cc(N2CCC3(CC2)NCCN(Cc2c[nH]c4ccccc24)C3=O)n1 [Example 1.66, 4-((1H-indol-3-yl)methyl)-9-(2-methoxy-6-methyl-pyrimidin-4-yl)-1,4,9-triazaspiro[5.5] undecan-5-one] | 3920 | 632 | – | – |
| Cc1cc(C)nc(N2CCC3(CC2)NCCN(Cc2ccccc2-c2nc(C)no2)C3=O)n1 [Example 1.69, 9-(4,6-dimethyl-pyrimidin-2-yl)-4-(2-(3-methyl-1,2,4-oxadiazol-5-yl)benzyl)-1,4,9-triazaspiro[5.5] undecan-5-one] | – | 235 | 13 | – |
| CCc1cc(-c2nn(C)nc2CN2CCNC3(CCN(c4nc(C)cc(C)n4)CC3)C2=O)ccn1 [Example 1.75, 9-(4,6-dimethyl-pyrimidin-2-yl)-4-((5-(2-ethyl-pyridin-4-yl)-2-methyl-2H-1,2,3-triazol-4-yl)methyl)-1,4,9-triazaspiro[5.5] undecan-5-one] | – | – | < 10 | 35 |
| Cc1cc(C)nc(N2CCC3(CC2)NCCN(Cc2nocc2-c2ccccc2)C3=O)n1 [Example 1.81, 9-(4,6-dimethyl-pyrimidin-2-yl)-4-((4-phenyl-isoxazol-3-yl)methyl)-1,4,9-triazaspiro[5.5] undecan-5-one] | – | 2190 | 33 | – |
| Cc1cc(C)nc(N2CCC3(CC2)NCCN(Cc2conc2-c2ccccc2)C3=O)n1 [Example 1.82, 9-(4,6-dimethyl-pyrimidin-2-yl)-4-((3-phenyl-isoxazol-4-yl)methyl)-1,4,9-triazaspiro[5.5] undecan-5-one] | – | 655 | 57 | – |
| Cc1cc(C)nc(N2CCC3(CC2)NCCN(Cc2nn(C)nc2-c2ccccc2)C3=O)n1 [Example 1.83, 9-(4,6-dimethyl-pyrimidin-2-yl)-4-((2-methyl-5-phenyl-2H-1,2,3-triazol-4-yl)methyl)-1,4,9-triazaspiro[5.5] undecan-5-one] | 4450 | 240 | – | – |
| Cc1cc(C)nc(N2CCC3(CC2)OCCN(Cc2ccccc2-c2ccco2)C3=O)n1 [Example 2.3, 9-(4,6-Dimethyl-pyrimidin-2-yl)-4-(2-furan-2-yl-benzyl)-1-oxa-4,9-diaza-spiro[5.5]undecan-5-one] | 1100 | 142 | – | – |
| COc1ccnc(N2CCC3(CC2)OCCN(Cc2c[nH]c4ccccc24)C3=O)n1 [Example 2.5, 4-((1H-Indol-3-yl)methyl)-9-(4-methoxypyrimidin-2-yl)-1-oxa-4,9-diazaspiro[5.5]undecan-5-one] | 1550 | 61 | – | – |
| Cc1cc(C)nc(N2CCC3(CC2)OCCN(Cc2ccccc2-c2ncco2)C3=O)n1 [Example 2.9, 9-(4,6-Dimethylpyrimidin-2-yl)-4-(2-(oxazol-2-yl)benzyl)-1-oxa-4,9-diazaspiro[5.5]undecan-5-one] | – | 659 | 42 | – |
| Cc1cc(C)nc(N2CCC3(CC2)OCCN(Cc2nn(C)nc2-c2ccccc2)C3=O)n1 [Example 2.12, 9-(4,6-Dimethylpyrimidin-2-yl)-4-((2-methyl-5-phenyl-2H-1,2,3-triazol-4-yl)methyl)-1-oxa-4,9-diazaspiro[5.5]undecan-5-one] | – | 364 | 16 | – |
| Cc1cc(C)nc(N2CCC3(CC2)OCCN(Cc2c(-c4ccccc4)nnn2C)C3=O)n1 [Example 2.15, 9-(4,6-Dimethylpyrimidin-2-yl)-4-((1-methyl-4-phenyl-1H-1,2,3-triazol-5-yl)methyl)-1-oxa-4,9-diazaspiro[5.5]undecan-5-one] | – | 2160 | 10 | – |
| Cc1cc(C)nc(N2CCC3(CC2)OCCN(Cc2nnn(C)c2-c2ccccc2)C3=O)n1 [Example 2.16, 9-(4,6-Dimethylpyrimidin-2-yl)-4-((1-methyl-5-phenyl-1H-1,2,3-triazol-4-yl)methyl)-1-oxa-4,9-diazaspiro[5.5]undecan-5-one] | – | – | 16 | 27 |
| CCc1ccnc(N2CCC3(CC2)OCCN(Cc2c[nH]c4ccccc24)C3=O)n1 [Example 2.22, 4-((1H-indol-3-yl)methyl)-9-(4-ethylpyrimidin-2-yl)-1-oxa-4,9-diazaspiro[5.5]undecan-5-one] | 2780 | 251 | – | – |
| Cc1cnc(N2CCC3(CC2)OCCN(Cc2c[nH]c4ccccc24)C3=O)nc1C [Example 2.24, 4-((1H-indol-3-yl)methyl)-9-(4,5-dimethylpyrimidin-2-yl)-1-oxa-4,9-diazaspiro[5.5]undecan-5-one] | 1650 | 182 | – | – |
| Cc1cc(C)nc(N2CCC3(CC2)OCCN(Cc2nocc2-c2ccccc2)C3=O)n1 [Example 2.25, 9-(4,6-dimethylpyrimidin-2-yl)-4-((4-phenylisoxazol-3-yl)methyl)-1-oxa-4,9-diazaspiro[5.5]undecan-5-one] | 2680 | 374 | – | – |
| Cc1cc(C)nc(N2CCC3(CC2)OCCN(Cc2conc2-c2ccccc2)C3=O)n1 [Example 2.26, 9-(4,6-dimethylpyrimidin-2-yl)-4-((3-phenylisoxazol-4-yl)methyl)-1-oxa-4,9-diazaspiro[5.5]undecan-5-one] | 1180 | 148 | – | – |
| N#Cc1ccnc(N2CCC3(CCN(Cc4c[nH]c5ccccc45)C3=O)CC2)c1 [Example 3.3, 2-(2-((1H-Indol-3-yl)methyl)-1-oxo-2,8-diazaspiro[4.5]decan-8-yl)isonicotinonitrile] | – | 496 | 27 | – |
| COc1cccc(N2CCC3(CCN(Cc4c[nH]c5ccccc45)C3=O)CC2)n1 [Example 3.4, 2-((1H-Indol-3-yl)methyl)-8-(6-methoxypyridin-2-yl)-2,8-diazaspiro[4.5]decan-1-one] | 3770 | 287 | – | – |
| Cc1ccnc(N2CCC3(CCN(Cc4c[nH]c5ccccc45)C3=O)CC2)n1 [Example 3.5, 2-((1H-Indol-3-yl)methyl)-8-(4-methylpyrimidin-2-yl)-2,8-diazaspiro[4.5]decan-1-one] | – | 296 | 25 | – |
| O=C1N(Cc2ccccc2-c2ccccc2)CCC12CCN(c1cnc3ccccc3n1)CC2 [Example 3.6, 2-(biphenyl-2-ylmethyl)-8-(quinoxalin-2-yl)-2,8-diazaspiro[4.5]decan-1-one] | 1630 | 784 | – | – |
| Cn1c(N2CCC3(CCN(Cc4ccccc4-c4ccccc4)C3=O)CC2)nc2ccccc21 [Example 3.8, 2-(Biphenyl-2-ylmethyl)-8-(1-methyl-1H-benzo[d]imidazol-2-yl)-2,8-diazaspiro[4.5]decan-1-one] | 506 | 644 | – | – |
| O=C1N(Cc2ccccc2-c2ccccc2)CCC12CCN(c1nc3ccccc3[nH]1)CC2 [Example 3.9, 8-(1H-Benzo[d]imidazol-2-yl)-2-(biphenyl-2-ylmethyl)-2,8-diazaspiro[4.5]decan-1-one] | 343 | 731 | – | – |
| O=C1N(Cc2c[nH]c3ccccc23)CCC12CCN(c1nc3ccccc3[nH]1)CC2 [Example 3.12, 8-(1H-Benzoimidazol-2-yl)-2-(1H-indol-3-ylmethyl)-2,8-diaza-spiro[4.5]decan-1-one] | 4970 | 376 | – | – |
